Reference: US4642314A, “Antiulcer compounds” (Nisshin Flour Milling Co., Ltd., priority 1984, dated 1987)

What was measured:
[1] = system: acetic acid-induced ulcer; assay: Acetic acid-induced ulcer (Curative test); assay type: in vivo, rat (male SD rats); conditions: Table 2; rat, 0.05 ml of 15% acetic acid underneath the serosa; lesion area on 14th day
Description: (§1) In the case of reserpine-induced ulcer, the assay was performed according to the description in "Arch. Int. Pharmacodym. Ther. 147,113 (1964)", and in the case of acetic acid-induced ulcer, the assay was performed according to the method described in "Jap. J. Pharmac. 19,418 (1969)", by inducing experimental ulcer in rat and evaluating the effect thereon of the compounds tested.
Groups of rats, each consisting of 6 male SD rats weighing 150-200 g were used. The stomach of ether-anesthesized rat was exposed and while taking acre not to injure blood vessels, 0.05 ml of 15% aqueous acetic acid solution was injected underneath the serosa. On the 14th day, the rats were killed with chloroform, the stomach taken out and the area of the infected lesion measured.
The curative ratio was calculated using the above equation: [formula]

[2] = acute toxicity (LD50), intraperitoneal route in mice; assay type: in vivo; conditions: mouse, in vivo, ip
reserpine-induced ulcer = assay: Reserpine-induced ulcer (Preventive test); assay type: in vivo, rat (male SD rats); conditions: Table 1; rat, 100 mg/kg oral, 30 min before reserpine 15 mg/kg i.p.; evaluated at 18 h; read-out: Preventive effect (preventive ratio)
Description: as §1
Groups of rats, each consisting of 6 male SD rats weighing 150-200 g were used. After 24 hours' fasting, a sample compound was orally administered to the rat at the dose of 100 mg/kg body weight, and 30 minutes after the administration, reserpine was intraperitoneally injected at the dose of 15 mg/kg body weight. Eighteen hours after the administration, the rats were killed with chloroform. The stomach was taken out, and severity of the hemorrhaging lesion was evaluated according to the method as above ("Arch. Int. Pharmacodym. Ther. 147,113 (1964)).
The preventive ratio was calculated using the following equation, [formula] wherein the control animals were intraperitoneally given reserpine only, at the dose of 15 mg/kg body weight.

| SMILES | Curative effect (curative ratio) [1] | LD50 ([2]; Table 2) | inhibition in vivo at 100 mg/kg (reserpine-induced ulcer) | LD50 ([2]; Table 1) |
| --- | --- | --- | --- | --- |
| CC(C)=CCCC(C)=CCCC(C)=CCCC(C)=CCCC(C)=CCCC(C)=CCCC(C)=CCCC(C)=CCCC(C)=CCCC(C)=CCO [Decaprenol] | +++ (40%-) | > 4000 mg/kg | – | – |
| CCCCCCCC/C=C/CCCCCCCCCCCC(=O)OCC=C(C)CCC=C(C)CCC=C(C)CCC=C(C)CCC=C(C)CCC=C(C)CCC=C(C)CCC=C(C)CCC=C(C)CCC=C(C)C [Decaprenyl brassidate] | ++ (25%-40%) | > 4000 mg/kg | – | – |
| CCCCCCCC/C=C/CCCCCCCC(=O)OCC=C(C)CCC=C(C)CCC=C(C)CCC=C(C)CCC=C(C)CCC=C(C)CCC=C(C)CCC=C(C)CCC=C(C)CCC=C(C)C [Decaprenyl elaidate] | – | – | 10 to 40% | > 5000 mg/kg |
| CC(C)=CCCC(C)=CCCC(C)=CCCC(=O)OCC=C(C)CCC=C(C)CCC=C(C)CCC=C(C)CCC=C(C)CCC=C(C)CCC=C(C)CCC=C(C)CCC=C(C)CCC=C(C)C [Decaprenyl farnesylacetate] | + (10%-25%) | > 5000 mg/kg | – | – |
| CC(C)=CCCC(C)=CCCC(=O)OCC=C(C)CCC=C(C)CCC=C(C)CCC=C(C)CCC=C(C)CCC=C(C)CCC=C(C)CCC=C(C)CCC=C(C)CCC=C(C)C [Decaprenyl geranylacetate] | + (10%-25%) | > 5000 mg/kg | – | – |
| CCCCCCCCCCC/C=C\CCCCC(=O)OCC=C(C)CCC=C(C)CCC=C(C)CCC=C(C)CCC=C(C)CCC=C(C)CCC=C(C)CCC=C(C)CCC=C(C)CCC=C(C)C [Decaprenyl petroselinate] | ++ (25%-40%) | > 4000 mg/kg | – | – |
| CC(C)=CCCC(C)=CCCC(C)=CCCC(C)=CCCC(C)=CCCC(C)=CCCC(C)=CCCC(C)=CCCC(C)=CCCC(=O)OCC=C(C)CCC=C(C)CCC=C(C)CCC=C(C)CCC=C(C)CCC=C(C)CCC=C(C)CCC=C(C)CCC=C(C)CCC=C(C)C [Decaprenyl solanesylacetate] | + (10%-25%) | > 5000 mg/kg | – | – |
| CCCCCCCC/C=C\CCCCCCCC(=O)OCCC(C)CCCC(C)CCCC(C)CCCC(C)C (stereo not shown) [Dihydrophytyl oleate] | – | – | 10 to 40% | > 4000 mg/kg |
| CCCCCCCCCCCCCCCCCC(=O)OCCC(C)CCCC(C)CCCC(C)CCCC(C)C (stereo not shown) [Dihydrophytyl stearate] | – | – | 10 to 40% | > 4000 mg/kg |
| CCOC(=O)CCC=C(C)CCC=C(C)CCC=C(C)CCC=C(C)CCC=C(C)CCC=C(C)CCC=C(C)CCC=C(C)CCC=C(C)CCC=C(C)C [Ethyl decaprenylacetate] | +++ (40%-) | > 4000 mg/kg | – | – |
| CCOC(=O)CCC=C(C)CCC=C(C)CCC=C(C)CCC=C(C)CCC=C(C)CCC=C(C)CCC=C(C)CCC=C(C)CCC=C(C)C [Ethyl solanesylacetate] | ++ (25%-40%) | > 4000 mg/kg | – | – |
| CC(C)=CCCC(C)=CCCC(C)=CCCC(C)=CCCC(C)=CCCC(C)=CCCC(C)=CCCC(C)=CCCC(C)=CCCC(C)=CCCC(=O)OCCC(C)C [Isoamyl decaprenylacetate] | + (10%-25%) | > 4000 mg/kg | – | – |
| CC(C)=CCCC(C)=CCCC(C)=CCCC(C)=CCCC(C)=CCCC(C)=CCCC(C)=CCCC(C)=CCCC(C)=CCCC(C)=CCCC(=O)OC(C)C [Isopropyl decaprenylacetate] | + (10%-25%) | > 4000 mg/kg | – | – |
| C/C(=C\CCC(=O)OC(C)C)CCC[C@H](C)CCC[C@H](C)CCCC(C)C [Isopropyl phytylacetate] | – | – | 10 to 40% | > 5000 mg/kg |
| COC(=O)CCC=C(C)CCC=C(C)CCC=C(C)CCC=C(C)CCC=C(C)CCC=C(C)CCC=C(C)CCC=C(C)CCC=C(C)CCC=C(C)C [Methyl decaprenylacetate] | ++ (25%-40%) | > 4000 mg/kg | – | – |
| COC(=O)CC/C=C(\C)CCC[C@H](C)CCC[C@H](C)CCCC(C)C [Methyl phytlacetate, Methyl phytylacetate] | – | – | 10 to 40% | > 5000 mg/kg |
| COC(=O)CCC=C(C)CCC=C(C)CCC=C(C)CCC=C(C)CCC=C(C)CCC=C(C)CCC=C(C)CCC=C(C)CCC=C(C)C [Methyl solanesylacetate] | ++ (25%-40%) | > 4000 mg/kg | – | – |
| CCCCCCCCC1OC1CCCCCCCC(=O)OC/C=C(\C)CCC[C@H](C)CCC[C@H](C)CCCC(C)C (stereo partly shown) [Phytyl 9,10-epoxystearate] | + (10%-25%) | > 5000 mg/kg | – | – |

| SMILES | Curative effect (curative ratio) [1] | LD50 ([2]; Table 2) | inhibition in vivo at 100 mg/kg (reserpine-induced ulcer) | LD50 ([2]; Table 1) |
| --- | --- | --- | --- | --- |
| CC(C)=CCCC(C)CCCC(=O)OC/C=C(\C)CCC[C@H](C)CCC[C@H](C)CCCC(C)C (stereo partly shown) [Phytyl citronellylacetate] | – | – | 10 to 40% | > 5000 mg/kg |
| CCCCCCCC/C=C/CCCCCCCC(=O)OC/C=C(\C)CCC[C@H](C)CCC[C@H](C)CCCC(C)C [Phytyl elaidate] | + (10%-25%) | > 4000 mg/kg | – | – |
| CCCCCCCC/C=C\CCCCCCCCCCCC(=O)OC/C=C(\C)CCC[C@H](C)CCC[C@H](C)CCCC(C)C [Phytyl erucate] | – | – | 10 to 40% | > 4000 mg/kg |
| CC(C)=CCCC(C)=CCCC(C)=CCCC(=O)OC/C=C(\C)CCC[C@H](C)CCC[C@H](C)CCCC(C)C [Phytyl farnesylacetate] | – | – | 10 to 40% | > 5000 mg/kg |
| CC(C)=CCC/C(C)=C/CCC(=O)OC/C=C(\C)CCC[C@H](C)CCC[C@H](C)CCCC(C)C [Phytyl geranylacetate] | – | – | 10 to 40% | > 5000 mg/kg |
| CCCCCCCCCCCC(=O)OC/C=C(\C)CCC[C@H](C)CCC[C@H](C)CCCC(C)C [Phytyl laurate] | – | – | 40 to 60% | > 5000 mg/kg |
| CCCCC/C=C\C/C=C\CCCCCCCC(=O)OC/C=C(\C)CCC[C@H](C)CCC[C@H](C)CCCC(C)C [Phytyl linoleate] | + (10%-25%) | > 4000 mg/kg | – | – |
| CCCCCCCCCCCCCCCC(=O)OC/C=C(\C)CCC[C@H](C)CCC[C@H](C)CCCC(C)C [Phytyl palmitate] | – | – | 40 to 60% | > 5000 mg/kg |
| CCCCCCCCCCC/C=C\CCCCC(=O)OC/C=C(\C)CCC[C@H](C)CCC[C@H](C)CCCC(C)C [Phytyl petroselinate] | ++ (25%-40%) | > 5000 mg/kg | – | – |
| C/C(=C\CCC(=O)OC/C=C(\C)CCC[C@H](C)CCC[C@H](C)CCCC(C)C)CCC[C@H](C)CCC[C@H](C)CCCC(C)C [Phytyl phytylacetate] | – | – | 40 to 60% | > 5000 mg/kg |
| CCCCCC[C@@H](O)C/C=C\CCCCCCCC(=O)OC/C=C(\C)CCC[C@H](C)CCC[C@H](C)CCCC(C)C [Phytyl ricinoleate] | + (10%-25%) | > 5000 mg/kg | – | – |
| CCCCCCCCCCCCCCCCCC(=O)OC/C=C(\C)CCC[C@H](C)CCC[C@H](C)CCCC(C)C [Phytyl stearate] | + (10%-25%) | > 4000 mg/kg | – | – |
| CC(=O)OCC=C(C)CCC=C(C)CCC=C(C)CCC=C(C)CCC=C(C)CCC=C(C)CCC=C(C)CCC=C(C)CCC=C(C)C [Solanesyl acetate] | – | – | 40 to 60% | > 4000 mg/kg |
| CC(C)=CCCC(C)=CCCC(C)=CCCC(C)=CCCC(C)=CCCC(C)=CCCC(C)=CCCC(C)=CCCC(C)=CCCC(C)=CCCC(=O)OCC=C(C)CCC=C(C)CCC=C(C)CCC=C(C)CCC=C(C)CCC=C(C)CCC=C(C)CCC=C(C)CCC=C(C)C [Solanesyl decaprenylacetate] | – | – | 10 to 40% | > 4000 mg/kg |
| CC(C)=CCCC(C)=CCCC(C)=CCCC(=O)OCC=C(C)CCC=C(C)CCC=C(C)CCC=C(C)CCC=C(C)CCC=C(C)CCC=C(C)CCC=C(C)CCC=C(C)C [Solanesyl farnesylacetate] | – | – | 10 to 40% | > 4000 mg/kg |
| CC(C)=CCCC(C)=CCCC(=O)OCC=C(C)CCC=C(C)CCC=C(C)CCC=C(C)CCC=C(C)CCC=C(C)CCC=C(C)CCC=C(C)CCC=C(C)C [Solanesyl geranylacetate] | + (10%-25%) | > 4000 mg/kg | – | – |
| CC(C)=CCCC(C)=CCCC(C)=CCCC(C)=CCCC(C)=CCCC(C)=CCCC(C)=CCCC(C)=CCCC(C)=CCCC(=O)O [Solanesylacetic acid] | + (10%-25%) | > 4000 mg/kg | – | – |
